Calls of active or inactive are those of the source.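 Rule for the calls: active = compounds giving half or more protection of infected cells from virus-caused growth loss, again on retest; inactive = the rest.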 Where a SMILES comes first, the peptide text is derived from it. The star is where a group is joined. Trt = c1ccc(C(c2ccccc2)(c2ccccc2)*)cc1; OtBu = CC(C)(C)O*; X14 = CC(C)COC*
Tested on: CEM cells HIV-1 protection, formazan growth assay
Test: NCI AIDS Antiviral Assay
Details: for IC50: measured here: growth of uninfected CEM cells
In short: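 Protection of CEM cells against HIV-1 measured as cell growth via soluble formazan read-out, with five concentrations tested on both infected and uninfected cells; failure to protect may reflect toxicity.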

SMILES	outcome	EC50 [µM]	IC50 [µM]
Cc1ccc2ccc(-c3ccccc3)c3c2c1C(=O)c1ccccc1C3=O	inactive	–	–
Cn1nc2ccc(Nc3cc(=O)[nH]c4ccc5nn(C)nc5c34)cc2n1	–	> 200	95.5
COc1cc2c3c(c1OC)-c1c(ccc4c1OCO4)CC3(C#N)N(C(=O)c1ccccc1)CC2 (stereo unspecified)	inactive	–	–
CCCCCCCCCCCCCCCCCCSCC(COP(=O)(O)OP(=O)(O)OCC1OC(n2ccc(=O)[nH]c2=O)CC1N=[N+]=[N-])OC(=O)CCCCCCCCCCCCCCC (stereo unspecified)	–	> 209	186
Cc1ccc(S(=O)(=O)OCC23CCC(C4CC42)C2CC23)cc1 (stereo unspecified)	–	> 100	77.6
COc1ccc(/C=N/N=C(N)N)c(C(=O)O)c1OC	inactive	–	–
CC/C=C\C/C=C\C/C=C\CCCCCCCC(=O)OCC(O)CO (stereo unspecified)	–	> 28.2	> 28.2
CC(=O)c1cccc(C(C)=O)c1N=Cc1ccc(O)cc1	inactive	–	–
CCOC(=O)c1ccc(CSc2ccc(N)cc2)cc1	–	> 457	240
O=[N+]([O-])c1ccccc1OS(=O)(=O)c1ccccc1	inactive	–	–
CCn1cc2c(=O)n3ncn(-c4ccc(Br)cc4)c3nc2n1	inactive	–	–
Cc1cc2nc(=O)cc(CCl)n2c(=O)n1C(=O)C(O)C(O)C(O)CO (stereo unspecified)	inactive	–	–
COc1ccc(CC2C(=O)NC(C)C(=O)N(C)C3C(=O)N(C)C(Cc4ccc(O)c(c4)Oc4ccc(cc4)C3O)C(=O)NC(C)C(=O)NC(C)C(=O)N2C)cc1 (stereo unspecified)	–	> 0.2	0.0631
CC(C)C1CC[C@@H](C)C[C@@]1(O)CC(N)=O (stereo partly specified)	inactive	–	–
Cc1ccc(SCC(CF)OC(C)n2cnc3c(Cl)nc(N)nc32)cc1 (stereo unspecified)	–	> 200	38
C=C1C(C2(C)C=CC(=O)OC3(C)COC(=O)CC32)C(OC=O)C(OC(=O)C(O)C(C)CC)C2(C)C(c3ccoc3)CC(OC(C)=O)C12O (stereo unspecified)	inactive	–	–
COC(=O)/C(C#N)=C1\N=NNN1c1ccc(OC)cc1	inactive	–	–
c1ccc(C2C3=C(Nc4ncnn42)c2ccccc2C3)cc1 (stereo unspecified)	–	> 12.6	7.24
O=C1/C(=C/c2ccccc2)CSC/C1=C\c1ccccc1	–	> 200	2.4
CC(C)C12NC(=O)NC(=O)N1CCS2 (stereo unspecified)	inactive	–	–
COC(=O)/C(=N\NC(=O)C[N+](C)(C)C)C(C(=O)OC)C(=O)C(=O)Nc1ccccc1C(N)=O (stereo unspecified)	–	> 501	> 501
COc1cccc2sc(-n3c(C)nc4ccccc4c3=O)nc12	–	> 200	> 200

SMILES	outcome	EC50 [µM]	IC50 [µM]
CCCCc1ccc(Nc2nc(OC)c3ncn(C4CC(O)C(CO)O4)c3n2)cc1 (stereo unspecified)	–	> 200	15.1
CC(C)(C)OC(=O)[N+](=N)C(=O)C1CCC(=O)N1C(=O)OCc1ccccc1 (stereo unspecified)	–	> 200	> 200
Cc1ccc(NC(=O)CC(=O)N2N=C(N(c3ccccc3)c3ccccc3)CC2c2ccccc2)cc1 (stereo unspecified)	inactive	–	–
CC#CC(=O)Nc1ccccc1CC(c1c[nH]c2ccccc12)c1c[nH]c2ccccc12	–	> 35.5	19.1
CC1C(c2ccc(N(C)C)cc2)c2cc3c(cc2OC1N1CCCC1)OCO3 (stereo unspecified)	–	> 100	17
O=C(O)CCCCCCCCCOc1ccccc1	–	> 200	40.7
C/C(=N\NC(N)=S)c1cn(C2OC(CO)C(O)C2O)c(=O)[nH]c1=O (stereo unspecified)	inactive	–	–
CCOc1cc2c(cc1Cc1ccc(OC)cc1)OCO2	–	> 91.2	0.631
CCOP(=O)(OCC)C(Cc1c[nH]c2ccccc12)C(=O)O (stereo unspecified)	–	> 200	> 200
O=C(CCCC(=O)Nc1ccc(Cl)cc1Cl)CC(=O)c1ccc2ccccc2c1	–	> 417	> 417
CNc1ncnc2c1ncn2C1OC(CO)C(O)C1O (stereo unspecified)	inactive	–	–
O=C1C(=Nc2ccc(Nc3ccccc3)cc2)Oc2ccccc21	–	> 200	3.09
CC1=NN(C(=O)CC(=O)Nc2cccc(C)c2)C(=O)C1N=Nc1ccc(C(=O)O)cc1 (stereo unspecified)	–	> 200	28.2
COc1ccc(/C=C2\SC(=S)N(/C=C/c3nc4ccccc4[nH]c3=O)C2=O)cc1OC	–	> 200	32.4
CC(C)COCSCC(NC(=O)CNC(=O)C(Cc1ccccc1)NC(=O)CNC(=O)C(N)CSC(c1ccccc1)(c1ccccc1)c1ccccc1)C(=O)NC(Cc1ccccc1)C(=O)NCC(=O)OC(C)(C)C (stereo unspecified) (H-C(Trt)GFGC(X14)FG-OtBu; configuration not given here)	–	> 24	> 24
CCOc1cc2c(cc1OC)c[n+](C)c1c3cc(OC)c(OC)cc3ccc21	inactive	–	–
CN(C)CCC(=O)/C=C\c1ccccc1	inactive	–	–
O=c1ccccc2c(/C=C/c3ccccc3)nn(-c3ccccc3)c12	inactive	–	–
COC1CC(C)([N+](=O)[O-])C(O)C(C)O1 (stereo unspecified)	–	> 200	> 200
O=C(O)c1ccc(CS(=O)(=O)c2ccccc2C(=O)O)c([N+](=O)[O-])c1	–	> 692	> 692
CCN(CC)CCSc1c2cc(OC)ccc2nc2ccc(OC)cc12	–	> 200	2.95
COc1ccc(/C=C/C(=O)c2cc(Cl)cc(Cl)c2O)cc1OC	–	> 200	1.05

SMILES	outcome	EC50 [µM]	IC50 [µM]
COc1ccc(C=C2C(=O)OC(C)(C)OC2=O)cc1	–	> 501	151
Cc1ccc2c(c1)N=C(Nc1ccccc1)N=S2(C)=O (stereo unspecified)	inactive	–	–
NC(=O)NNC(=O)c1nc[nH]c1[N+](=O)[O-]	–	> 200	> 200
CCOC(=O)C(=CN1C/C(=C/C(C)=C/c2ccccc2)SC1=S)C(=O)OCC	–	> 100	18.2
CC(=O)OC1C(OCc2cc(=O)oc3c4c(c5c(c23)OC(C)(C)CC5)O[C@@H](C)[C@H](C)[C@@H]4O)OC(CO)C(O)C1O (stereo partly specified)	–	> 200	43.7
CC(C)=CCc1c(O)cc(O)c2c1O[C@H](c1cc3c(cc1O)O[C@@H](c1ccc(O)cc1)C3c1cc(O)cc(O)c1)CC2=O (stereo partly specified)	–	> 77.6	36.3
Cc1cn([C@@H]2C[C@@H]2CO)c(=O)[nH]c1=O	inactive	–	–
O=C(OC(C(=O)O)C(OC(=O)c1ccccc1)C(=O)O)c1ccccc1 (stereo unspecified) (tested in a mixture with another compound)	–	> 380	0.912
COc1cc(/C=C2\CCC(C)C3=C2NC(=S)NC3c2cc(OC)c(OC)c(OC)c2)cc(OC)c1OC (stereo unspecified)	–	> 200	32.4
c1ccc2[nH]c(-c3nc4ccccc4o3)nc2c1	–	> 15.8	> 15.8
O=c1cc(-c2ccc3c(c2)OCO3)oc2c(Cl)cc(Cl)cc12	–	> 100	57.5
CCCc1cc(=O)oc2c3c(c4c(c12)OC(C)(C)C=C4)OC(C)[C@H](C)[C@@H]3O (stereo partly specified)	–	5.01	13.8
Cc1ccc(-n2nc(C(OC3OC(CO)C(O)C(O)C3O)C(O)CO)c3nc4cc(C)c(C)cc4nc32)cc1 (stereo unspecified)	inactive	–	–
CCC1=C(OC)c2ncccc2C(=O)C1=O	inactive	–	–
CN(C)C(=O)ON=C1c2ccccc2-c2ccccc21	–	> 200	28.8
O=C1CC(=O)NC(=NN2C(=O)CSC2c2ccccc2)N1 (stereo unspecified)	–	> 200	> 200
Cc1ccc2nc3n(c2c1)C(c1c(F)cccc1F)SC3 (stereo unspecified)	–	26.9	45.7
CC(C)CCC[C@@H](C)C1CCC2[C@@H]3CC=C4C[C@@H](OP(=O)([O-])OCC[N+](C)(C)C)CC[C@]4(C)C3CC[C@@]21C (stereo partly specified)	–	> 39.8	20.4
Cc1ccc(-c2cc(-c3ccco3)c(C#N)c(=O)n2C2OC(CO)C(O)C(O)C2O)cc1 (stereo unspecified)	–	25.7	81.3
COc1ccccc1NC(=O)/C(=C/n1c(=S)[nH]c2cc(C)ccc21)C(C)=O	–	> 200	151
CCCOCC(=O)OC	–	> 1910	> 1910
CC(C)(C)C1CCC2c3c([nH]c4ccccc34)C3C(=O)N(c4ccccc4)C(=O)C3C2C1 (stereo unspecified)	inactive	–	–

SMILES	outcome	EC50 [µM]	IC50 [µM]
C/C(CC(=O)Nc1ccc(C)c(C)c1)=N\NC(N)=O	–	> 692	> 692
O=C(O)C(=Cc1ccc(Br)cc1)C(=O)O	–	> 912	> 912
CCCCCCCCCCCCCC(=O)O[C@@H]1[C@@H](C)[C@@]2(O)[C@@H](C=C(CO)C[C@]3(O)C(=O)C(C)=C[C@@H]23)[C@@H]2C(C)(C)[C@]12OC(C)=O	active	–	–
COC(=O)C1(C)C=C(Nc2ccccc2)C(=O)N1c1ccccc1 (stereo unspecified)	–	> 6.17	> 6.17
O=C1CSC(c2ccccc2Cl)N1N1C(=O)CSC1c1ccccc1Cl (stereo unspecified)	–	> 200	18.2
COc1cc2ccn3c4cc(OC)c(OC)cc4cc3c2cc1OC	–	7.94	8.13
CC(=O)NNc1ncc(C(=O)/C=C/c2ccccc2C)s1	–	> 22.4	> 22.4
O=C(c1nc2ccc(Cl)cc2[nH]c1=O)C(O)c1ccccc1 (stereo unspecified)	–	> 575	11.5
N#CC(/C(=N\NC(N)=S)C(=O)NC1C2CC3CC(C2)CC1C3)c1ccc(Cl)cc1 (stereo unspecified)	–	> 17	> 17
Cc1ccc(S(=O)(=O)/C(C#N)=C\NC(=S)N=Nc2c(O)[nH]c3ccccc23)cc1	–	> 200	> 200
O=[N+]([O-])c1ccccc1S(=O)(=O)Cc1ccccc1	–	> 245	> 245
O=c1ccn(/C=C(\c2ccccc2)S(=O)Cc2ccccc2)c(=S)[nH]1 (stereo unspecified)	inactive	–	–
[CH3][Hg]/[N]=C(/N)NC#N	inactive	–	–
O=c1c2cccnc2ncn1CCN1CCCC1	inactive	–	–
COc1ccccc1C=C(C#N)C#N	–	> 977	229
CN(C)C1C(=O)C(C(=O)NCNC2C(=O)N3C2SC(C)(C)C3C(=O)O)=C(O)C2(O)C(=O)C3=C(O)c4c(O)cccc4C(C)(O)C3CC12 (stereo unspecified)	–	> 269	251
O=C1C(=Cc2ccccc2[N+](=O)[O-])N=C(c2ccccc2)N1n1c(-c2ccccc2)nc2ccccc2c1=O	–	> 200	29.5
COC(=O)c1c2c(cc3c1CC1(C3)Cc3cc4c(c(C(=O)OC)c3C1)CCCC4)CCCC2	–	> 200	> 200
Cc1cc2cc3n(c2nn1)N=C(Cl)CC3	–	> 339	6.31
CC(=O)N1C(=O)/C(=C\C(=O)c2ccc(Cl)cc2)c2ccccc21	–	> 100	1.48
